Reference: patent publication US8420657B2 (Novartis AG, priority 2008, dated 2013)

Experiments:
GST-JAK2(808-1132) = target: T1, GST-JAK2(808-1132) (Homo sapiens, UniProt O60674); assay: JAK2 kinase assay (Caliper mobility shift, LabChip 3000); format: biochemical
T1 construct: GST-JAK2(808-1132); purchased Invitrogen (Carlsbad, USA) #4288
How it was run: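 Eight-point compound series (final 10–0.003 μM) tested on purchased GST-JAK2 kinase domain (808-1132). Peptide FITC-JAK3tide plus ATP reacted 60 min, 30 °C, then quenched with EDTA; turnover from charge-based separation of substrate and product.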

[1] = tested on: JAK2-dependent nuclear translocation of STAT5-GFP in U-2 OS osteosarcoma cells; assay: STAT5 nuclear translocation assay (Cellomics), rhEpo stimulated U-2 OS STAT5-GFP cells; format: cell-based; settings: Homo sapiens, U2OS; STAT5 translocation pathway
Description: The medium-throughput (96-well format) cellular automated fluorescence microscopy Cellomics assay can be routinely used to assess the functional activation of Janus Kinases (JAKs), based on the nuclear translocation of their substrate, Signal Transducer and Activator of Transcription (STAT). Nuclear translocation can be monitored either in HT1080 fibrosarcoma cells stably transfected with STAT1 fused to Green Fluorescence Protein (GFP) or in U-2 OS osteosarcoma cells stably transfected with STAT5 fused to Green Fluorescence Protein (GFP). Stimulation of HT1080 cells with interferon-γ (IFN-γ) results in JAK1/JAK2-dependent nuclear translocation of STAT1-GFP, whereas stimulation of U-2 OS cells with recombinant human erythropoietin (rhEpo) results in JAK2-dependent nuclear translocation of STAT5-GFP, both of which can be quantified using the Cellomics Cyto/NucTrans software package. This assay may be used to provide an assessment of the nuclear-cytoplasmic differential (NCD) of STAT-GFP using Hoechst dye to define the boundaries of the nucleus.
U-2 OS osteosarcoma cells may be obtained from ATCC and can be cultured in standard RPMI medium supplemented with 10% FCS and 2 mM L-glutamine. Cells can be stably transfected with STAT5a-GFP using Lipofectamine following the manufacturers' protocol. 24 hours after transfection the medium can be replaced and selected in 400 μg/ml Geneticin. Subsequently, cells can be stably transfected with EpoR using Lipofectamine following the manufacturers' protocol. 24 hours after transfection the medium can be replaced and cells selected in 100 μg/ml Hygromycin B.
Compounds can be dissolved in DMSO to a final stock concentration of 10 mM and stored as aliquots at 4° C. Compounds may be pre-diluted in 100% DMSO at 10 mM, 3 mM 1 mM, 0.3 mM, 0.1 mM, 0.03 mM, 0.01 mM and 0.003 mM. Subsequently, compounds may be diluted in medium and added in 50 μl to the cells. The final compound concentrations tested may be 10 μM, 3 μM 1 μM, 0.3 μM, 0.1 μM, 0.03 μM, 0.01 μM and 0.003 μM and the final DMSO concentration can be 0.1%.
U-2 OS may be seeded at a cell density of 12,000 cells per well in clear-bottom black 96-well Packard View-Plates™. The following day, medium can be removed and replaced with medium containing either the vehicle (DMSO) or increasing concentrations of test compounds for 30 minutes at 37° C. Cells can then be stimulated for 1 hour by adding 10 μl per well of 50 U/ml rhEpo to obtain 5 U/ml of rhEpo as the final concentration. Following treatments, cells can fixed and processed as described above.
The plates can be read on a Cellomics® ArrayscanII automated fluorescence microscope plate reader equipped with a Mercury-Xenon white light illumination source and a Zeiss Axiovert inverted microscope, using the XF100 dichroic/emission filter cube and matching excitation filters, 10× magnification, and a 0.3 numerical aperture objective. Image acquisition and analysis can be performed using a customized protocol based on the ‘NuclearTranslocation’ Bioapplication. For each well, multiple images (fields) can be acquired until a minimum of 1000 cells are counted using two 2 channels: Channel 1 (Hoechst)=focus+nuclear mask, Channel 2 (GFP)=signal quantification in mask areas as outlined below. Nuclei may be first identified based on the Hoechst staining and a mask generated for each nucleus that then serves as a template to generate a circle (eroded inwards by 1 pixel) and a 3 pixel-wide collar-like ring (off-set outwards by 1 pixel), in which the nuclear and cytoplasmic intensity of GFP, respectively, are quantified in the corresponding channel. High content analysis yields numerous measurements per cell and the GFP intensity differential between the nuclear and the cytoplasmic masks may be chosen as a measure of sub-cellular STAT-GFP relocation. The resulting values may be averaged for all cells in the well to return a single measurement plus standard deviation. […]

T1 sequence (O60674 808-1132): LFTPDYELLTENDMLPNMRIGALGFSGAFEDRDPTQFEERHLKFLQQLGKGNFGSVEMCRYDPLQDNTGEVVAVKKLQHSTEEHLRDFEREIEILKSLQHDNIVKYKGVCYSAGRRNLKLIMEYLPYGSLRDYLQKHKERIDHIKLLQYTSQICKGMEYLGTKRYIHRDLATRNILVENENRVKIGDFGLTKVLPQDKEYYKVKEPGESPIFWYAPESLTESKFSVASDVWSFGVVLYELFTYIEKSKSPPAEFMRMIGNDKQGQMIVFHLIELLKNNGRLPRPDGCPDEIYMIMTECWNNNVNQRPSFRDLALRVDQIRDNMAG

| Structure (SMILES) | IC50 (GST-JAK2(808-1132)) [nM] | IC50 [1] [nM] |
| --- | --- | --- |
| Cc1ccc(Nc2ncc3ccn(-c4cc(F)c(CN5CCOCC5)c(F)c4)c3n2)cc1CN1CCN(C)CC1 [Example 331, [7-(3,5-Difluoro-4-morpholin-4-ylmethyl-phenyl)-7H-pyrrolo[2,3-d]pyrimidin-2-yl]-[4-methyl-3-(4-methyl-piperazin-1-ylmethyl)-phenyl]-amine] | ≤ 3 | 2.8 |
| Cc1cc(Nc2ncc3ccn(-c4cc(F)c(CN5CCOCC5)c(F)c4)c3n2)ccc1[C@H]1CCCN1 [Example 346, [7-(3,5-Difluoro-4-morpholin-4-ylmethyl-phenyl)-7H-pyrrolo[2,3-d]pyrimidin-2-yl]-((R)-3-methyl-4-pyrrolidin-2-yl-phenyl)-amine] | ≤ 3 | 2.8 |
| Fc1cc(-n2ccc3cnc(Nc4ccnc(OC5CCOCC5)c4)nc32)cc(F)c1CN1CCOCC1 [Example 350, [7-(3,5-Difluoro-4-morpholin-4-ylmethyl-phenyl)-7H-pyrrolo[2,3-d]pyrimidin-2-yl]-[2-(tetrahydro-pyran-4-yloxy)-pyridin-4-yl]-amine] | ≤ 3 | 21.8 |
| C[C@@H]1CN(c2ccc(Nc3ncc4ccn(-c5ccc(S(=O)(=O)NC(C)(C)C)cc5)c4n3)cn2)C[C@H](C)N1 [Example 351, N-tert-Butyl-4-{2-[6-(cis-3,5-dimethyl-piperazin-1-yl)-pyridin-3-ylamino]-pyrrolo[2,3-d]pyrimidin-7-yl}-benzenesulfonamide] | 4.3 | 1.3 |
| Fc1cc(-n2ccc3cnc(Nc4ccnc(OCCN5CCOCC5)c4)nc32)cc(F)c1CN1CCOCC1 [Example 352, [7-(3,5-Difluoro-4-morpholin-4-yl methyl-phenyl)-7H-pyrrolo[2,3-d]pyrimidin-2-yl]-[2-(2-morpholin-4-yl-ethoxy)-pyridin-4-yl]-amine] | ≤ 3 | 22.1 |
| Cc1ccc(Nc2ncc3ccn(-c4ccc(S(=O)(=O)NC(C)(C)C)cc4)c3n2)cc1CN1CCN(C)CC1 [Example 353, N-tert-Butyl-4-{2-[4-methyl-3-(4-methyl-piperazin-1-ylmethyl)-phenylamino]-pyrrolo[2,3-d]pyrimidin-7-yl}-benzenesulfonamide] | 4.9 | 17 |
| Cc1ccc(Nc2ncc3ccn(-c4cc(F)c(CN5CCOCC5)c(F)c4)c3n2)cc1CN1C[C@@H](C)N[C@@H](C)C1 [Example 355, [7-(3,5-Difluoro-4-morpholin-4-yl methyl-phenyl)-7H-pyrrolo[2,3-d]pyrimidin-2-yl]-[3-(cis-3,5-dimethyl-piperazin-1-ylmethyl)-4-methyl-phenyl]-amine] | 3.7 | 5.3 |
| Cc1ccc(Nc2ncc3ccn(-c4cc(F)c(CN5CCOCC5)c(F)c4)c3n2)cc1CN1CCOC2(COC2)C1 [Example 358, [7-(3,5-Difluoro-4-morpholin-4-ylmethyl-phenyl)-7H-pyrrolo[2,3-d]pyrimidin-2-yl]-[3-(2,5-dioxa-8-aza-spiro[3,5]non-8-ylmethyl)-4-methyl-phenyl]-amine] | 7.2 | 59 |
| Cc1ccc(Nc2ncc3ccn(-c4ccc(C(=O)N5CCOCC5)c(F)c4)c3n2)cc1CN1CCOC2(COC2)C1 [Example 359, (4-{2-[3-(2,5-Dioxa-8-aza-spiro[3,5]non-8-ylmethyl)-4-methyl-phenylamino]-pyrrolo[2,3-d]pyrimidin-7-yl}-2-fluoro-phenyl)-morpholin-4-yl-methanone] | 7.4 | 135 |
| C[C@@H]1CN(c2ccc(Nc3ncc4ccn(-c5cc(F)c(CN6CCOC7(COC7)C6)c(F)c5)c4n3)cn2)C[C@H](C)N1 [Example 360, [6-(cis-3,5-Dimethyl-piperazin-1-yl)-pyridin-3-yl]-{7-[4-(2,5-dioxa-8-aza-spiro[3,5]non-8-ylmethyl)-3,5-difluoro-phenyl]-7H-pyrrolo[2,3-d]pyrimidin-2-yl}-amine] | 3.3 | 7.2 |
| CN1CCN(C(=O)c2cc(Nc3ncc4ccn(-c5cc(F)c(CN6CCOCC6)c(F)c5)c4n3)ccn2)CC1 [Example 361, {4-[7-(3,5-Difluoro-4-morpholin-4-ylmethyl-phenyl)-7H-pyrrolo[2,3-d]pyrimidin-2-ylamino]-pyridin-2-yl}-(4-methyl-piperazin-1-yl)-methanone] | 23 | 260 |
| O=C(c1cc(Nc2ncc3ccn(-c4cc(F)c(CN5CCOCC5)c(F)c4)c3n2)ccn1)N1CCOC2(COC2)C1 [Example 362, {4-[7-(3,5-Difluoro-4-morpholin-4-ylmethyl-phenyl)-7H-pyrrolo[2,3-d]pyrimidin-2-ylamino]-pyridin-2-yl}-(2,5-dioxa-8-aza-spiro[3.5]non-8-yl)-methanone] | 24 | 152 |
| CC(C)(C)NS(=O)(=O)c1ccc(-n2ccc3cnc(Nc4ccc(OCCN5CCCC5)cc4)nc32)cc1 [Example 363, N-tert-Butyl-4-{2-[4-(2-pyrrolidin-1-yl-ethoxy)-phenylamino]-pyrrolo[2,3-d]pyrimidin-7-yl}-benzenesulfonamide] | 3.2 | 11 |
| Cc1ccc(Nc2ncc3ccn(-c4cc(F)c(CN5CCOCC5)c(F)c4)c3n2)cc1CN1CCN(C2CC2)CC1 [Example 365, [3-(4-Cyclopropyl-piperazin-1-ylmethyl)-4-methyl-phenyl]-[7-(3,5-difluoro-4-morpholin-4-ylmethyl-phenyl)-7H-pyrrolo[2,3-d]pyrimidin-2-yl]-amine] | 4.6 | 43 |
| Cc1ccc(Nc2ncc3ccn(-c4ccc(C(=O)N5CCOCC5)c(F)c4)c3n2)cc1CN1CCN(C2CC2)CC1 [Example 366, (4-{2-[3-(4-Cyclopropyl-piperazin-1-ylmethyl)-4-methyl-phenylamino]-pyrrolo[2,3-d]pyrimidin-7-yl}-2-fluoro-phenyl)-morpholin-4-yl-methanone] | 8.6 | 65 |
| Cc1ccc(Nc2ncc3ccn(-c4ccc(C(=O)N5CCOCC5)c(F)c4)c3n2)cc1CN1C[C@@H](C)N[C@@H](C)C1 [Example 367, (4-{2-[3-(cis-3,5-Dimethyl-piperazin-1-ylmethyl)-4-methyl-phenylamino]-pyrrolo[2,3-d]pyrimidin-7-yl}-2-fluoro-phenyl)-morpholin-4-yl-methanone] | 8.4 | 144 |
| C[C@@H]1CN(c2ccc(Nc3ncc4ccn(-c5ccc(S(N)(=O)=O)cc5)c4n3)cn2)C[C@H](C)N1 [Example 369, 4-{2-[6-(cis-3,5-Dimethyl-piperazin-1-yl)-pyridin-3-ylamino]-pyrrolo[2,3-d]pyrimidin-7-yl}-benzenesulfonamide] | ≤ 3 | 57 |
| Cc1ccc(Nc2ncc3ccn(-c4cc(F)c(CN5CCOCC5)c(F)c4)c3n2)cc1CN1CCN(C=O)CC1 [Example 370, 4-{5-[7-(3,5-Difluoro-4-morpholin-4-ylmethyl-phenyl)-7H-pyrrolo[2,3-d]pyrimidin-2-ylamino]-2-methyl-benzyl}-piperazine-1-carbaldehyde] | ≤ 3 | 31.3 |
| C[C@@H]1CN(C(=O)c2cc(Nc3ncc4ccn(-c5cc(F)c(CN6CCOCC6)c(F)c5)c4n3)ccn2)C[C@H](C)N1 [Example 371, {4-[7-(3,5-Difluoro-4-morpholin-4-ylmethyl-phenyl)-7H-pyrrolo[2,3-d]pyrimidin-2-ylamino]-pyridin-2-yl}-(cis-3,5-dimethyl-piperazin-1-yl)-methanone] | 13 | 135 |
